From patent US11944688B2, “Biologically active compounds” (SUTURA THERAPEUTICS LTD, priority 2015, dated 2024)
Positions of bridges follow the written chain, without caps; N, C: chain ends. Non-standard residues stand in square brackets, D forms with d. No end group written: not given here. {FITC} = fluorescein isothiocyanate label; S5 = C=CCCC[C@](C)(N)C(=O)O; {NH2} = amine group

Columns and labels:
HEK293T cells = test: Uptake into HEK293T cells by flow cytometry; format: cell-based, human; conditions: 4 hours
Experimental: FIG. 11 is the analysis of PMO uptake into HEK293T cells by flow cytometry. Cells were incubated without PMO or with 1 μM PMO, 1 μM PMO-C8M or 1 μM PMO-CP8M-NC (all fluorescein-labelled) at 37° C. for 4 hours. Fluorescence was measured after washing the cells with PBS.
HEK293T cells (Human embryonic kidney) were cultured in high glucose DMEM supplemented with 10% foetal calf serum (Sigma, UK) at 37° C. under an 8% CO2/92% air atmosphere.
(§1) U2OS cells were incubated with PMO or PMO-CP8M at increasing concentration (0.5 μM, 1.0 μM, 5.0 μM and 10 μM) with […] transfection reagent; H2K mdx mouse myoblasts were incubated with PMO or PMO-CP8M at 5.0 μM: HEK293T cells were incubated with CP8M (1.0 μM, 10 μM and 100 μM) and PMO, PMO-CP8M-NC, PMO-C8M at 1.0 μM. Levels of fluorescence was quantified at 494 nm to determine relative entry of respective compounds by microscopic or flow cytometry methodologies.
Uptake of fluorescently-labelled PMO was determined by flow cytometry using an Accuri C6 flow cytometer. PMO-transfected cells were released with trypsin, washed in PBS and kept on ice before analysis. Cell fluorescence in single live cells was determined using FlowJo software after appropriate gating. Untreated cells were used to establish gating settings for the determination of the % fluorescein-positive cells.

U2OS cells = test: Delivery of fluorescently labelled PMO into U2OS cells, fluorescence microscopy; format: cell-based, human; conditions: 0.5-10 μM, 4 hours, without transfection reagent
Experimental: The biologically active compound was a PMO with a sequence:
(an antisense reagent targeted to exon 23 of the mouse dystrophin gene, that causes the exclusion of exon 23 during mRNA splicing maturation); the bi-functional linker was a PEGylated SMCC; and the StaP was RKF-S5-RLF-S5 (SEQ ID NO: 57). This configuration of DCCPM is depicted as PMO-CP8M in the subsequent figs; unconjugated PMO acts as a control. All compounds were added to U2OS cells maintained in culture, without transfection reagent for 4 hours;
U2OS cells (Human osteosarcoma) were cultured in high glucose DMEM supplemented with 10% foetal calf serum (Sigma, UK) at 37° C. under an 8% CO2/92% air atmosphere.
as §1

H2K mdx mouse myoblasts = test: Delivery of fluorescently labelled PMO into H2K mdx myoblasts, fluorescence microscopy; format: cell-based; conditions: 5 μM, without transfection reagent
Experimental: (§2) H2K mdx mouse myoblasts were cultured at 33° C. under a 8% CO2/92% air atmosphere in high-glucose DMEM supplemented with 20% foetal calf serum, 0.5% chicken embryo extract (PAA laboratories Ltd, Yeovil, UK), and 20 units/ml γ-interferon (Roche applied science, Penzberg, Germany). Cells were then treated with trypsin and plated at 8×10^4/cm^2 in 24-well plates coated with 0.1 mg/ml ECM gel (Sigma). H2K mdx cells were transfected 24 h after seeding with treatment in a final volume of 0.2 ml of normal growth media. Following 4 hours of transfection, the PMO or PMO-SAP was removed and replaced with DMEM supplemented with 5% horse serum. Fluorescence and RNA extraction was performed 48 hours post transfection.
as §1

[1] = test system: exon 23 of the mouse dystrophin gene; test: Exon 23 exclusion in H2K mdx cells, nested RT-PCR; format: cell-based; conditions: 5 μM, RT-PCR 901 bp full length / 688 bp exon 23 excluded
Experimental: 24 hours after incubation with PMO-CP8M or PMO, H2K mdx cells were recovered and RNA isolated. The RNA was reversed transcribed and an amplification between exon 20 and 26 of the mouse dystrophin gene, followed by a nested amplification between exon 20 and 26 was performed to yield a full length product of 901 bp fragment if exon 23 is present or 688 bp fragment if exon 23 is excluded;
as §2
Total RNA was isolated from H2K mdx mouse myoblasts cells (RNeasy, Qiagen, UK). […]

dystrophin [2] = test: Dystrophin immunostaining of Tibialis anterior after intramuscular injection in mdx mice; format: in vivo; conditions: single intramuscular 2.2 nmol, 7 days post-administration, n=4
Experimental: Muscles were recovered 7 day post administration;
All dose are given in respect of the molarity of PMO;
(§3) mdx mice, with access to chow and water ad libitum, were used in all experiments. All experiments were carried out in the Animal unit, School of Biological Science, University of Reading, Reading, UK according to procedures authorized by the UK Home Office. Mice were killed by CO2 inhalation or cervical dislocation at desired time points, and muscles and other tissues were snap-frozen in liquid nitrogen-cooled isopentane and stored at −80° C.
(§4) Intramuscular administrations: Tibialis anterior muscles of mdx mice were injected with either 2.2 nmol PMO or 2.2 nmol PMO-CP8M under isoflurane anaesthesia. […]
(§5) For skeletal muscle, heart and brain, […] cryosections were cut and dystrophin protein was detected using rabbit polyclonal antibody to dystrophin (ab15277; Abcam, Cambridge, UK). […] For liver, […] cryosections were dried and embedded in fluorescence-compatible mounting medium (Dako), and general fluorescence was assessed microscopically at 494 nm.

dystrophin [3] = test: Dystrophin immunostaining of heart muscle after intraperitoneal administration in mdx mice; format: in vivo
From the text: FIG. 18a is of mdx mice following a single intraperitoneal injection of 1 μmol/kg PMO-CP8M or 1 μmol/kg PMO. Muscles were recovered 7 days post administration;
FIG. 18b is following multiple intraperitoneal injections—total 7.6 μmol/kg PMO-CP8M or 7.6 μmol/kg PMO. Muscles were recovered 14 days post administration;
FIG. 18c is following multiple intraperitoneal injections—total 10.9 μmol/kg PMO-CP8M or 10.9 μmol/kg PMO;
FIG. 18d is a graphical representation of the number of cardiac muscle fibre being positive for an immuno-cytochemical staining for dystrophin following a multiple intraperitoneal injections—total 7.6 μmol/kg PMO-CP8M or 7.6 μmol/kg PMO; and
FIG. 18e is a graphical representation of the number of cardiac muscle fibre being positive for an immuno-cytochemical staining for dystrophin following multiple intraperitoneal injections—total 10.9 μmol/kg PMO-CP8M or 10.9 μmol/kg PMO. All dose are given in respect of the molarity of PMO [* denotes non fluorescent labelled PMO]. Hearts were recovered 14 days post administration;
Hearts were recovered 14 days post administration;
as §3, §4, §5

dystrophin [4] = test: Dystrophin immunostaining of cerebellum after systemic administration in mdx mice; format: in vivo; conditions: single 1 μmol/kg intravenous, without fluorescent label, 7 days, n=1 per group
Experimental: All dose are given in respect of the molarity of PMO [* denotes non fluorescent labelled PMO]. Cerebella were recovered 7 days post administration; and
as §3, §4, §5

Substance	cellular entry of FITC-labelled CP8M charge variants (HEK293T cells; HEK293T, 1.0, 10 and 100 μM, without transfection reagent)	fluorescence signal (cell entry) (U2OS cells)	cell entry of fluorescein-labelled PMO (HEK293T cells; HEK293T, 1 μM, 37° C.)	muscle cell entry (H2K mdx mouse myoblasts)	exclusion of exon 23 from the dystrophin transcript [1]	percentage of dystrophin re-expression (dystrophin [2])	dystrophin-positive heart muscle fibres, 7.6 μmol/kg (dystrophin [3]; intraperitoneal total 7.6 μmol/kg over 4 days, without fluorescent label, 2 weeks post-administration, n=4, mean±SEM) [fibres]	dystrophin-positive heart muscle fibres, 10.9 μmol/kg (dystrophin [3]; intraperitoneal total 10.9 μmol/kg over 2 days, n=4, mean±SEM) [fibres]	dystrophin-positive heart muscle fibres, single low dose (dystrophin [3]; single intraperitoneal 1 μmol/kg, 7 days, n=1 per group)	dystrophin expression in Purkinje cells of cerebellum (dystrophin [4])
CP8M: CPP sequence RKF-S5-RLF-S5 (SEQ ID NO: 57) with PEGylated SMCC as BFL (RKF[S5]RLF[S5]-NH2; staple 4-8; also: PEGylated SMCC as BFL, attachment not given here)	dose dependent increase									
PMO: PMO 5′GGCCAAACCTCGGCTTACCTGAAAT3′ targeted to exon 23 of mouse dystrophin gene; 5′ amine, 3′ FITC label; unconjugated control (all phosphorodiamidate morpholino (PMO), 5' {NH2}, 3' {FITC})		only a background fluorescence signal	refractory to cell entry	refractory to muscle cell entry	lack of exon exclusion	762.25	57±17	33±8	not	No dystrophin expression was observed
